Measurements reported in patent US20120277199A1, “Modulation of Gel Temperature of Poloxamer-Containing Formulations” (Otonomy, Inc., priority 2009, published 2012).
Converted amounts (≈) assume the structure as drawn.

Tests used:
[1] = In vitro dissolution in snapwells, mean dissolution time (MDT); assay type: physicochemical
Protocol: Dissolution was performed at 37° C. in snapwells (6.5 mm diameter polycarbonate membrane with a pore size of 0.4 μm). […] Samples were taken every hour (0.1 mL withdrawn and replaced with warm buffer).
Dissolution is performed at 37° C. in snapwells (6.5 mm diameter polycarbonate membrane with a pore size of 0.4 μm), 0.2 mL of a gel formulation described herein is placed into snapwell and left to harden, then 0.5 mL buffer is placed into reservoir and shaken using a Labline orbit shaker at 70 rpm. Samples are taken every hour (0.1 mL withdrawn and replace with warm buffer). […] Pluronic concentration is analyzed at 624 nm using the cobalt thiocyanate method.
The mean dissolution time (MDT) is the sum of different periods of time the drug molecules stay in the matrix before release, divided by the total number of molecules and is optionally calculated by:
Dissolution was performed at 37° C. in snapwells (6.5 mm diameter polycarbonate membrane with a pore size of 0.4 μm), 0.2 mL of formulation was placed into snapwell and left to harden, then 0.5 mL of 0.9% saline was placed into reservoir and shaken using a Labline orbit shaker at 70 rpm. Samples were taken every hour (0.1 mL withdrawn and replace with warm buffer). Samples analyzed for dexamethasone and ciprofloxacin concentration by UV at 245 and 270 nm, respectively using a Evolution 160 UV/Vis spectrophotometer (Thermo Scientific). Quantitation performed against an external calibration standard.
Dissolution was performed at 37° C. in snapwells (6.5 mm diameter polycarbonate membrane with a pore size of 0.4 μm), 0.2 mL of gel was placed into snapwell and left to harden, 0.5 mL of 0.9% saline was placed into reservoir and shaken using a Labline orbit shaker at 70 rpm. Samples were taken every hour (All the saline withdrawn and replace with warm 0.9% saline with an osmolality of 290 mOsm). Samples were analyzed for Ciprofloxacin by HPLC.

[2] = Perilymph pharmacokinetics after intratympanic injection in guinea pigs; conditions: guinea pig, in vivo
Protocol: Guinea pigs were administered 50 μl via intratympanic delivery and PK in the perilymph was measured as described herein.
Female guinea pigs (Charles River) weighing 200-300 g, of approximately 6-8 weeks of age are used (N=4 per group). Prior to any procedure, animals are anesthetized using a combination of xylazine (10 mg/kg), ketamine (40 mg/kg) and acepromazine (0.75 mg/kg) for up to an hour via the intramuscular route. If needed, an intraoperative booster is administered intraperitoneally representing one-tenth of the original dose. Intratympanic injection—Each animal is positioned so that the head is tilted at an angle to favor injection towards the round window niche. Briefly, under visualization with an operating microscope, 50 μl of formulations comprising 0 to 50% active agent and varying concentrations of P407 are administered to the animals. […] During the procedure and until recovery, animals are placed on a temperature controlled (40° C.) heating pad until consciousness is regained at which time they are returned to the vivarium. Perilymph sampling procedure—The skin behind the ear of anesthetized guinea pigs is shaved and disinfected with povidone-iodine. An incision is then made behind the ear, and muscles are carefully retracted from over the bulla. […]
Determination of active agent concentrations is performed using high pressure liquid chromatography (HPLC) combined with mass spectrometry detection (MS). […] The samples are analyzed by reversed phase HPLC (1100 series, Agilent) using an Atlantis dC18 column maintained at 40° C. The mobile phase is nebulized using heating nitrogen in a Z-spray source/interface and the ionized compounds detected using MS/MS (Tandem quadrupole mass spectrometer, Quattro Ultima, Waters). Peak heights of an active agent are determined using MassLynx software (Waters). […]
Pharmacokinetic parameters are calculated using conventional noncompartmental pharmacokinetic methods. The apparent clearance (CL app) is calculated as the ratio between the administered intratympanic dose and the exposure (AUC). […]

[3] = cited from earlier work
[4] = physchem; conditions: aqueous with cosolvent or surfactant or cyclodextrin, thermodynamic from solid
Protocol: In addition, modifying the solubility of the active agent can also have an effect on the properties of the thermosensitive gel.
A formulation comprising 0.5% w/w SP600125 in 16% Poloxamer 407 was made by dispersing 5.3 mg of SP600125 (LC Labs) in 994.7 mg of a 16% P407 in 50 mM Tris buffer.

[5] = systemically administered (oral or intravenously); cited from earlier work
[6] = Stability to autoclaving (impurity profile, assay, pH, osmolality, appearance); assay type: physicochemical; conditions: autoclaving at 250° F. for 30 minutes in P407
Protocol: Cold 16% P407 in 50 mM TRIS buffers-saline (pH 7.4 and osmolality of 280 mOsM) was placed in a open container, then ciprofloxacin free base or ciprofloxacin free base hydrate (3.5 moles) was sprinkled in while mixing. Ciprofloxacin suspension was mixed for not less than 10 minutes, then micronized dexamethasone was added slowly to the mixture while mixing. The homogenous suspension was then transferred to 3 mL vials and filled at different volumens (v1=4 g, v2, 3 g and v3 2 g). The glass vial were sealed with West stoppers (fluorotec coated) and Aluminum seals, followed by autoclaving at 250° F. for 30 minutes.
Weigh 58.8 g of the above buffer, chill down, then sprinkle while mixing 11.291 g of poloxamer 407 NF (BASF lot WPNF580C), mix until fully dissolved. Weigh 64.8 g of a the 16% P407 (above solution) into a 100 mL glass bottle containing a 35 mm stir bar then sprinkle 2.2915 g of ciprofloxacin hydrate (Neuland lot CHI071000). Mix for not less than 2 hours at a setting of 11 (IKA stir plate) minutes while cooling then fill 31 two mL vials with approximately 2 g of suspension, stopper them with 13 mm West stoppers and seal them with Al seal, autoclave for 30 minutes @ 250° C.

With `C[C@@H]1C[C@H]2[C@@H]3CCC4=CC(=O)C=C[C@]4(C)[C@@]3(F)[C@@H](O)C[C@]2(C)[C@@]1(O)C(=O)COP(=O)(O)O` [DSP, dexamethasone sodium phosphate] the MDT ([1]; 17% Poloxamer 407 formulation) was “about 3 h” and the MDT ([1]; DSP aqueous solution, micronized DEX suspension in water (no poloxamer)) was 0.3 h.

For `C[C@H]1C[C@@H]2[C@H]([C@@H](O)C[C@@]3(C)[C@H]2CC[C@]3(O)C(=O)COC(=O)CCC(=O)[O-])[C@@]2(C)C=CC(=O)C=C12.[Na+]` [MPS], the MDT ([1]; 17% Poloxamer 407 formulation) was “about 3 h” and the “peak methylprednisolone levels in the perilymph” value [2] was 6.5 µg/mL.

For `C[C@H]1C[C@@H]2[C@H]([C@@H](O)C[C@@]3(C)[C@H]2CC[C@]3(O)C(=O)CO)[C@@]2(C)C=CC(=O)C=C12` [MP], the “decrease of perilymph levels after peak” value [2] was “decreased slowly over 10 days” and the “peak methylprednisolone levels in the perilymph” value [2] was 19.2 µg/mL.

In the case of `O=C1c2ccccc2-c2n[nH]c3cccc1c23` [SP600125, anthra[1,9-cd]pyrazol-6(2H)-one], the reported water solubility [3] is listed as 11 µg/mL, the “LogD (7.4)” value ([3]; pH 7.4) is listed as 3.2 and the solubility [4] is listed as ~190 µg/mL (≈ 863 µM).

For `O=P(O)(O)C(O)(Cn1ccnc1)P(=O)(O)O` [Zoledronate], the “in vitro mean dissolution time (MDT)” value ([1]; 16% P407 formulation, FIG. 6) is listed as 2 h and the “amount reaching the perilymph in the inner ear and/or otic bone structure” value [5] is listed as “about 0.1 ng/day”.

In the case of `CN(C)CCC=C1c2ccccc2CCc2ccccc21` [amitriptyline], the water solubility [3] is listed as “greater than 100 mg/mL”.

With `O=C(O)c1cn(C2CC2)c2cc(N3CCNCC3)c(F)cc2c1=O` [ciprofloxacin free base hydrate, ciprofloxacin hydrate] the “change observed after autoclaving” value ([6]; hydrate) was “minimal growth or recrystallization”.

With `O=C(O)c1cn(C2CC2)c2cc(N3CCNCC3)c(F)cc2c1=O` [ciprofloxacin free base, ciprofloxacin] the “change observed after autoclaving” value [6] was “appreciable particle size increase”.

For `Cc1cccc(CN2CCN(C(c3ccccc3)c3ccc(Cl)cc3)CC2)c1` (stereo not shown) [meclizine], the solubility in water [3] is given as “insoluble in water”.

In the case of `O=P(O)(O)C(O)(Cc1cccnc1)P(=O)(O)O` [rosidronate], the “amount reaching the perilymph in the inner ear and/or otic bone structure” value [5] is given as “about 0.6 ng/day”.
